≈ marks a conversion by molar mass, not a printed value.
Assays:
Assay type in all cases: functional
Mus musculus = test: Effective dose of perorally administered compound against B16 melanoma BL6 cells implanted into mice; range is 11.9-27.6; conditions: B16, po
B16 [1] = test: Effective dose of intravenously administered compound against B16 melanoma BL6 cells implanted into mice; conditions: Mus musculus, B16, iv
P388 = test: Concentration required to inhibit mouse P388 cell line growth by 50% at 72 hr continuous exposure; conditions: P388, 72 h
PC-6 [2] = test: Concentration required to inhibit human PC-6 cell line growth by 50% at 72 hr continuous exposure; conditions: PC-6, 72 h
PC-6 [3] = test: Concentration required to inhibit human PC-6/VP1-1 cell line growth by 50% at 72 hr exposure; conditions: PC-6, 72 h
PC-12 = test: Concentration required to inhibit human PC-12 cell line growth by 50% at 72 hr continuous exposure; conditions: PC-12, 72 h
PC-6 [4] = test: Concentration required to inhibit human PC-6/VCR29-9 cell line growth by 50% at 72 hr exposure; conditions: PC-6, 72 h
PC-6 [5] = test: Concentration that inhibited the growth of PC-6/VCR29-9 cells by 50% at 72 hr continuous exposure; conditions: Homo sapiens, PC-6, 72 h
PC-6 [6] = test: Concentration required to inhibit human PC-6/VCR29-9 cell line growth by 50% at 72 hr of exposure; conditions: PC-6, 72 h
B16 [7] = test: Effective dose of perorally administered compound against B16 melanoma BL6 cells implanted into mice; conditions: Mus musculus, B16, po

| GI50 (P388) [ng/mL] | Compound | ED50 (Mus musculus) [mg/kg] | ED50 (B16 [1]) [mg/kg] | GI50 (PC-6 [2]) [ng/mL] | GI50 (PC-6 [3]) [ng/mL] | GI50 (PC-12) [ng/mL] | GI50 (PC-6 [4]) [ng/mL] | GI50 (PC-6 [5]) [ng/mL] | GI50 (PC-6 [6]) [ng/mL] | ED50 (B16 [7]) [mg/kg] |
| --- | --- | --- | --- | --- | --- | --- | --- | --- | --- | --- |
| 0.56 (≈ 0.639 nM) | CC(=O)O[C@@]12CO[C@@H]1CC[C@@]1(C)[C@@H]3O[C@H](CNC4CCC4)O[C@@H]3C3=C(C)[C@@H](OC(=O)[C@H](O)[C@@H](NC(=O)OC(C)(C)C)c4ccccn4)C[C@@](O)([C@@H](OCc4ccccc4)[C@@H]12)C3(C)C | 27.6 | 7.9 | 0.83 (≈ 0.947 nM) | 81.7 (≈ 93.3 nM) | 1.45 (≈ 1.66 nM) | 4.88 (≈ 5.57 nM) |  |  |  |
| 0.07 (≈ 0.0818 nM) | CC(=O)O[C@@]12CO[C@@H]1CC[C@@]1(C)[C@@H]3O[C@H](CN(C)C)O[C@@H]3C3=C(C)[C@@H](OC(=O)[C@H](O)[C@@H](NC(=O)OC(C)(C)C)c4cncs4)C[C@@](O)([C@@H](OCc4ccccc4)[C@@H]12)C3(C)C |  |  | 0.3 (≈ 0.35 nM) | 23.8 (≈ 27.8 nM) | 0.17 (≈ 0.199 nM) |  | 1.63 (≈ 1.9 nM) |  |  |
| 2.93 (≈ 3.49 nM) | CC(=O)O[C@H]1C(=O)[C@@]2(C)[C@H]([C@H](OCc3ccccc3)[C@]3(O)C[C@H](OC(=O)[C@H](O)[C@@H](NC(=O)c4ccccc4)c4ccccc4)C(C)=C1C3(C)C)[C@]1(OC(C)=O)CO[C@@H]1C[C@@H]2O |  |  | 1.27 (≈ 1.51 nM) | 1000 (≈ 1190 nM) | 539 (≈ 642 nM) |  |  | 455 (≈ 542 nM) |  |
| 0.06 (≈ 0.0691 nM) | CC(=O)O[C@@]12CO[C@@H]1CC[C@@]1(C)[C@@H]3O[C@H](CNC4CC4)O[C@@H]3C3=C(C)[C@@H](OC(=O)[C@H](O)[C@@H](NC(=O)OC(C)(C)C)c4nccs4)C[C@@](O)([C@@H](OCc4ccccc4)[C@@H]12)C3(C)C |  |  | 0.42 (≈ 0.484 nM) | 39.4 (≈ 45.4 nM) | 0.12 (≈ 0.138 nM) | 1.16 (≈ 1.34 nM) |  |  |  |
| 0.17 (≈ 0.197 nM) | CC(=O)O[C@@]12CO[C@@H]1CC[C@@]1(C)[C@@H]3O[C@H](CNC4CC4)O[C@@H]3C3=C(C)[C@@H](OC(=O)[C@H](O)[C@@H](NC(=O)OC(C)(C)C)c4ccccn4)C[C@@](O)([C@@H](OCc4ccccc4)[C@@H]12)C3(C)C |  |  | 0.54 (≈ 0.626 nM) | 49.4 (≈ 57.3 nM) | 0.3 (≈ 0.348 nM) | 2.22 (≈ 2.58 nM) |  |  |  |
|  | CC(=O)O[C@@]12CO[C@@H]1CC[C@@]1(C)[C@@H]3O[C@H](CN4CCOCC4)O[C@@H]3C3=C(C)[C@@H](OC(=O)[C@H](O)[C@@H](NC(=O)OC(C)(C)C)c4ccc(F)cn4)C[C@@](O)([C@@H](OCc4ccccc4)[C@@H]12)C3(C)C |  | 3.5 |  |  |  |  |  |  | 7.9 |

— ChEMBL document CHEMBL1146649, “New highly active taxoids from 9 beta-dihydrobaccatin-9,10-acetals. Part 5” (2004)
